Tests used:
ATP-loaded vesicles = assay: MANT-ATP accumulation in ATP-loaded granules of keratinocytes (confocal microscopy); type: cell-based, human; conditions: 10 µM imeglimin, 19 hours; 0.3 mM MANT-ATP
Description: Keratinocytes were cultured in the same manner as in Example 8. Keratinocytes were cultured at 4 × 10^4 cells/ml in a glass-bottom dish (35 mm, manufactured by Matsunami Glass Ind., Ltd.) at 37°C in 5% CO2 for 2 days. The culture medium was then replaced with a medium supplemented with MANT-ATP (manufactured by Invitrogen) at a final concentration of 0.3 mM, and further incubation was performed for 4.5 hours. Subsequently, imeglimin was added thereto to a final concentration of 10 µM, and further incubation was performed at 37°C in 5% CO2 for 19 hours. Thereafter, the cells were washed twice with HBSS (manufactured by Gibco) and observed using an inverted confocal laser microscope (FV-1000 OSR, manufactured by Olympus Corporation).

VNUT = molecular target: T1, VNUT (Homo sapiens, UniProt Q9BYT1); assay: Inhibitory effect on VNUT (data not shown); type: biochemical
T1 sequence (Q9BYT1 1-436): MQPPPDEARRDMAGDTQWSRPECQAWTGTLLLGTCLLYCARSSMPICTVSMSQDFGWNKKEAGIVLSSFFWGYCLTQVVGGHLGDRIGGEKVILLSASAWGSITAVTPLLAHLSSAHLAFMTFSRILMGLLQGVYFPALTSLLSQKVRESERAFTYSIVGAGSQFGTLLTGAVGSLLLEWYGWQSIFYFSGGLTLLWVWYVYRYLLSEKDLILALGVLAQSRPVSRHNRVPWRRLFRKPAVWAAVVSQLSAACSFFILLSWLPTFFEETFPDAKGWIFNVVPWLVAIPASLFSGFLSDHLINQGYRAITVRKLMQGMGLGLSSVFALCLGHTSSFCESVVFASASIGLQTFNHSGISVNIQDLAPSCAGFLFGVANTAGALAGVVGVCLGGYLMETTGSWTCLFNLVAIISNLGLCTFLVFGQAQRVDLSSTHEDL

[1] = test system: imiquimod-induced psoriasis relapse; assay: Imiquimod-induced psoriasis relapse model; type: in vivo, mice; conditions: imeglimin 40 mg/kg orally, alternate days Day 8 to 22, then daily from Day 23; compared to IMQ
Description: To the left auricle of each mouse, 62.5 mg of 5% imiquimod cream (Beselna Cream 5%) was applied once daily a total of seven times (Days 1 to 7) in accordance with Example 19 to induce imiquimod-induced psoriasis. Thereafter, the imiquimod treatment was interrupted, and imeglimin (40 mg/kg) was orally administered on alternate days for 2 weeks (Day 8 to 22) (IMG). Mice without administration of imeglimin were designated IMQ. On Day 23, the imiquimod treatment was resumed, and 62.5 mg of 5% imiquimod cream (Beselna Cream 5%) was applied once daily a total of […]. In parallel, imeglimin (40 mg/kg) was orally administered daily to IMG.

C[C@H]1N=C(N(C)C)N=C(N)N1 [imeglimin] was tested, and the “accumulation of MANT-ATP in granules” value (ATP-loaded vesicles) was “this accumulation was absent”, the “inhibitory effect on VNUT” value (VNUT) was “neither imeglimin nor metformin exhibited a strong inhibitory effect” and the “psoriatic symptoms (auricular thickness) after resumed imiquimod treatment” value [1] was “markedly reduced”.
